Consider 14 molecules from patent US10206907B2, “Compounds useful for the treatment of degenerative and inflammatory diseases” (GALAPAGOS NV, priority 2008, dated 2019).

Data set [1] has as its target Recombinant human JAK1 catalytic domain (Homo sapiens (Human), UniProt P23458). Kind of data set: JAK1 inhibition assay. In kind it is biochemical. The following applies: semi-quantitative score. The gist of the method:
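Radiometric assay read by scintillation counting after phosphoric-acid washes. Percent inhibition calculated from cpm relative to vehicle and 10 μM staurosporine control. IC50 derived from compound dose-dilution series.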

Data set [2] deals with Recombinant human JAK2 catalytic domain (Homo sapiens (Human), UniProt O60674). Kind of data set: JAK2 inhibition assay. In kind it is biochemical. Particulars: semi-quantitative score. The gist of the method: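 Radiometric kinase reactions ran for 90 min at 30 °C and were stopped with phosphoric acid, then washed and counted by scintillation. Percent inhibition was set relative to vehicle and to 10 μM staurosporine background. IC50 was derived from dose-dilution series.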

Data set [3] deals with JAK-STAT signalling in HeLa cells. Kind of data set: JAK-STAT signalling assay (OSM-triggered pSTAT1(2)-luciferase reporter in HeLa cells). In kind it is cell-based. The following applies: Homo sapiens; HeLa cells, OSM-triggered pSTAT1(2)-luciferase reporter; read-out: STAT signalling EC50. A digest of the protocol: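 HeLa cells transiently transfected with pSTAT1(2)-luciferase reporter plus LacZ internal control, incubated overnight at 37 °C, 10% CO2, then OSM-stimulated with compound. Luciferase read by Steadylite luminescence and normalised to β-galactosidase (ONPG); percent inhibition from controls, EC50 from dose-response.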
(Reporter assays use an easily measured gene product as a stand-in for the process of interest.)

In a further data set the test system is MMP13 in SW1353 cells. Kind of data set: OSM/IL-1β signaling assay (MMP13 levels in SW1353 cells).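 Also: secreted MMP13 captured by antibody, activated with APMA and its activity read by fluorescence, inhibition scaled between vehicle-treated triggered wells (0%) and untriggered wells (100%).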 The data set is classed as cell-based. The following applies: Homo sapiens; SW1353 cells, OSM and IL-1β triggered, MMP13 levels 48 hours after triggering; read-out: MMP13 EC50.
Data set [4] can be described thus: Microsomal stability, human liver microsomes. In kind it is in vitro ADME. The following applies: percentage of compound remaining after 60 minutes, 3 μM compound. The gist of the method:
(§1)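 Compound was incubated with liver microsomes plus an NADP+/glucose-6-phosphate/G6PDH/MgCl2 regenerating system at 37°C for 1 h. Reactions were stopped 1:1 with MeOH or ACN and analysed by LCMS.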
Background: Microsomes from liver hold many membrane-bound enzymes, among them those of drug oxidation.

Data set [5] in a line: Microsomal stability, rat liver microsomes. In kind it is in vitro ADME. The following applies: percentage of compound remaining after 60 minutes, 3 μM compound. A digest of the protocol:
as §1

Data set [6] in a line: Caco2 permeability (bi-directional). In kind it is in vitro ADME, human. The following applies: human, pH 7.4; for Papp A→B at 1 h, 10 µM: Caco-2, apical to basolateral, read-out: Papp (A2B); for efflux ratio at 1 h, 10 µM: Caco-2, ratio of PappB>A/PappA>B. The protocol:
Bi-directional Caco-2 assays were performed as described below.
2×10^5 cells/well were seeded in plating medium consisting of DMEM+GlutaMAXI+1% NEAA+10% FBS (FetalClone II)+1% Pen/Strep. The medium was changed every 2-3 days.
50 μM Lucifer Yellow (Sigma) was added to the donor buffer in all wells to assess integrity of the cell layers by monitoring Lucifer Yellow permeation. As Lucifer Yellow (LY) cannot freely permeate lipophilic barriers, a high degree of LY transport indicates poor integrity of the cell layer.
After a 1 hour incubation at 37° C. while shaking at an orbital shaker at 150 rpm, 70 μL aliquots were taken from both apical (A) and basal (B) chambers and added to 100 μL1 50:50 acetonitrile:water solution containing analytical internal standard (0.5 μM carbamazepine) in a 96 well plate.
Concentrations of compound in the samples were measured by high performance liquid-chromatography/mass spectroscopy (LC-MS/MS).
The Efflux ratios, as an indication of active efflux from the apical cell surface, were calculated using the ratio of PappB>A/PappA>B.
The following assay acceptance criteria were used:
Lucifer yellow permeability: ≤100 nm/s
(In general: Caco-2 cells form a polarised layer with tight junctions and transporters.)

SMILES strings stand for the structures. pEC50, pIC50: −log10 of the molar value.

Chain of Recombinant human JAK2 catalytic domain (O60674 808-1132): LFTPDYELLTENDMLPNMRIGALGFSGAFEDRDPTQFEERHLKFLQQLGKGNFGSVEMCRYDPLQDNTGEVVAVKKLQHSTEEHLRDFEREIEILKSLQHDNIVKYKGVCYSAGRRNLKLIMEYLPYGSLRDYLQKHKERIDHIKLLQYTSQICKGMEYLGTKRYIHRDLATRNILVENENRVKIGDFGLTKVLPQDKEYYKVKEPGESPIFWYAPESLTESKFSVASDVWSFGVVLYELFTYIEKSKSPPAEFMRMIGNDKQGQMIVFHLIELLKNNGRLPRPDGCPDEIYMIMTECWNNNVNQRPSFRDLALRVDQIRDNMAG
Chain of Recombinant human JAK1 catalytic domain (P23458 850-1154): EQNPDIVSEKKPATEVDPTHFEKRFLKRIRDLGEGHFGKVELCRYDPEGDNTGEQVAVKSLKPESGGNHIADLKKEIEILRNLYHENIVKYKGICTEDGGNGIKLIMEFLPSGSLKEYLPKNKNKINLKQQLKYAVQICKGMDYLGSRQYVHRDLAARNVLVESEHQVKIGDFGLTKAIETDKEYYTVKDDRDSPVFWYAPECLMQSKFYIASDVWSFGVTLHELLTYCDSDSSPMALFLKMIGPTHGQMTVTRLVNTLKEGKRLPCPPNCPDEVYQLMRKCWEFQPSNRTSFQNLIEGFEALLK
Description for MMP13 in SW1353 cells: The cells were seeded in 96 well plates at 15,000 cells/well in a volume of 120 μL DMEM (Invitrogen) containing 10% (v/v) FBS and 1% penicillin/streptomycin (InVitrogen) incubated at 37° C. […] MMP13 activity was measured using an antibody capture activity assay. […] Next the wells were washed twice with PBS+0.05% Tween followed by MMP13 activation by addition of 35 μL of a 1.5 mM 4-Aminophenylmercuric acetate (APMA) (Sigma, A9563) solution and incubation at 37° C. for 1 hour. […] Percentage inhibition=((fluorescence determined in the presence of vehicle−fluorescence determined for sample with test compound present) divided by (fluorescence determined in the presence of vehicle−fluorescence determined for sample without trigger))*100%.

As for `O=C(Nc1nc2cccc(-c3ccc(CNc4ccccc4F)cc3)n2n1)C1CC1` [Compound 226, Cyclopropanecarboxylic acid (5-{4-[(2-fluoro-phenylamino)-methyl]-phenyl}-[1,2,4]triazolo[1,5-a]pyridin-2-yl)-amide], the pIC50 in data set [1] and in data set [2] was more than 7.00 each time. Moreover, the negative logarithm of the EC50 (pEC50) is 6.30 to 7.00 in data set [3] and 6.00 to 6.30 with MMP13 in SW1353 cells. Further, in data set [4], the “Microsomal Stability Human (%)” value was “* (* 0-25)”. In addition, the “Microsomal Stability Rat (%)” value in data set [5] is “* (* 0-25)”.
Regarding `O=C(Nc1nc2cccc(-c3ccc(CN4CCC(F)CC4)cc3)n2n1)C1CC1` [Compound 233, Cyclopropanecarboxylic acid {5-[4-(4-fluoro-piperidin-1-ylmethyl)-phenyl]-[1,2,4]triazolo[1,5-a]pyridin-2-yl}-amid], the negative logarithm of the IC50 (pIC50) in data set [1] and in data set [2] was more than 7.00 throughout. The figures for the negative logarithm of the EC50 (pEC50) (in data set [3]; in the data set on MMP13 in SW1353 cells) were less than 6.00 and 6.00 to 6.30, respectively. For the same molecule, in data set [4], the “Microsomal Stability Human (%)” value is on record as “*** (*** 51-75)”. The “Microsomal Stability Rat (%)” value in data set [5] is on record as “** (** 26-50)”.
Turning to `COc1ccc(NCc2ccc(-c3cccc4nc(NC(=O)C5CC5)nn34)cc2)cn1` [Compound 236, Cyclopropanecarboxylic acid (5-{4-[(6-methoxy-pyridin-3-ylamino)-methyl]-phenyl}-[1,2,4]triazolo[1,5-a]pyridin-2-yl)-amide], the pIC50 in data set [1] and in data set [2] was more than 7.00 each time. Moreover, the pEC50 was 6.00 to 6.30 in data set [3] and 6.30 to 9.00 in the data set on MMP13 in SW1353 cells. Also, in data set [4], the “Microsomal Stability Human (%)” value is “* (* 0-25)”. The “Microsomal Stability Rat (%)” value in data set [5] was “* (* 0-25)”.
Regarding `O=C(Nc1nc2cccc(-c3ccc(CN4CCN(CC(F)(F)F)CC4)cc3)n2n1)C1CC1` [Compound 241, Cyclopropanecarboxylic acid (5-{4-[4-(2,2,2-trifluoro-ethyl)-piperazin-1-ylmethyl]-phenyl}-[1,2,4]triazolo[1,5-a]pyridin-2-yl)-amide], the negative logarithm of the IC50 (pIC50) in data set [1] is more than 7.00; in data set [2], 6.30 to 7.00. In addition, the pEC50 in data set [3] was 6.00 to 6.30; with MMP13 in SW1353 cells it was less than 6.00. In addition, the “Microsomal Stability Human (%)” value in data set [4] is “*** (*** 51-75)”. In addition, in data set [5], the “Microsomal Stability Rat (%)” value is recorded as “**** (**** 76-100)”.
In the case of `O=C(Nc1nc2cccc(-c3ccc(CNc4ccccn4)cc3)n2n1)C1CC1` [Compound 244, Cyclopropanecarboxylic acid (5-[4-(pyridin-2-ylaminomethyl)-phenyl]-[1,2,4]triazolo[1,5-a]pyridin-2-yl}-amide], the negative-log IC50 (pIC50) in data set [1] and in data set [2] was more than 7.00 each time. Further, the negative-log EC50 (pEC50) (in data set [3]; with MMP13 in SW1353 cells) was 6.00 to 6.30 each time. The “Microsomal Stability Human (%)” value in data set [4] is given as “* (* 0-25)”. Moreover, the “Microsomal Stability Rat (%)” value in data set [5] is reported as “* (* 0-25)”.
For the molecule `COc1c(F)ccc(NCc2ccc(-c3cccc4nc(NC(=O)C5CC5)nn34)cc2)c1F` [Compound 245, Cyclopropanecarboxylic acid (5-{4-[(2,4-difluoro-3-methoxy-phenylamino)-methyl]-phenyl}-[1,2,4]triazolo[1,5-a]pyridin-2-yl)-amide], the pIC50 in data set [1] and in data set [2] was more than 7.00 throughout. For the same molecule, the pEC50 in data set [3] was 6.30 to 7.00; with MMP13 in SW1353 cells, less than 6.00. The “Microsomal Stability Human (%)” value in data set [4] is “* (* 0-25)”. The “Microsomal Stability Rat (%)” value in data set [5] is “* (* 0-25)”.
Take `O=C(Nc1nc2cccc(-c3ccc(CNc4c(F)cccc4F)cc3)n2n1)C1CC1` [Compound 246, Cyclopropanecarboxylic acid (5-{4-[(2,6-difluoro-phenylamino)-methyl]-phenyl}-[1,2,4]triazolo[1,5-a]pyridin-2-yl)-amide]: the negative-log IC50 (pIC50) in data set [1] and in data set [2] was more than 7.00 each time. Besides, the negative logarithm of the EC50 (pEC50) is 6.30 to 7.00 in data set [3] and 6.00 to 6.30 in the data set on MMP13 in SW1353 cells. Also, in data set [4], the “Microsomal Stability Human (%)” value is recorded as “* (* 0-25)”. For the same molecule, the “Microsomal Stability Rat (%)” value in data set [5] is reported as “* (* 0-25)”.
For the molecule `O=C(Nc1nc2cccc(-c3ccc(CNc4ncc(F)cc4F)cc3)n2n1)C1CC1` [Compound 257, Cyclopropanecarboxylic acid (5-{4-[(3,5-difluoro-pyridin-2-ylamino)-methyl]-phenyl}-[1,2,4]triazolo[1,5-a]pyridin-2-yl)-amide], the pIC50 in data set [2] was more than 7.00. In data set [6], the Papp A→B at 1 h, 10 µM is 24 ×10⁻⁶ cm/s and the efflux ratio at 1 h, 10 µM came to 1.1.
On to `O=C(Nc1nc2cccc(-c3ccc(CC(=O)N4CCCCC4)cc3)n2n1)C1CC1` [Compound 266, Cyclopropanecarboxylic acid {5-[4-(2-oxo-2-piperidin-1-yl-ethyl)-phenyl]-[1,2,4]triazolo[1,5-a]pyridin-2-yl}-amide], for which the pIC50 in data set [1] was more than 7.00; in data set [2], 6.30 to 7.00. Moreover, the results for the pEC50 (in data set [3]; in the data set on MMP13 in SW1353 cells) were 6.00 to 6.30 and less than 6.00, respectively. Also, the “Microsomal Stability Human (%)” value in data set [4] is reported as “* (* 0-25)”. Moreover, the “Microsomal Stability Rat (%)” value in data set [5] was “**** (**** 76-100)”.
Consider `O=C(Nc1nc2cccc(-c3ccc(CC(=O)N4CCS(=O)(=O)CC4)cc3)n2n1)C1CC1` [Compound 267, Cyclopropanecarboxylic acid (5-{4-[2-(1,1-dioxo-thiomorpholin-4-yl)-2-oxo-ethyl]-phenyl}-[1,2,4]triazolo[1,5-a]pyridin-2-yl)-amide], for which the pIC50 was more than 7.00 in data set [1] and 6.30 to 7.00 in data set [2]. Also, the pEC50 (in data set [3]; in the data set on MMP13 in SW1353 cells) was less than 6.00 throughout. Besides, the “Microsomal Stability Human (%)” value in data set [4] is “**** (**** 76-100)”. For the same molecule, the “Microsomal Stability Rat (%)” value in data set [5] is reported as “**** (**** 76-100)”.
In the case of `CN(C(=O)c1ccc(-c2cccc3nc(NC(=O)C4CC4)nn23)cc1)C1CCS(=O)(=O)C1` (stereo not drawn) [Compound 273, 4-[2-(Cyclopropanecarbonyl-amino)-[1,2,4]triazolo[1,5-a]pyridin-5-yl]-N-(1,1-dioxo-tetrahydrothiophen-3-yl)-N-methyl-benzamide], the negative-log IC50 (pIC50) in data set [1] and in data set [2] was more than 7.00 in each case. Further, the pEC50 (in data set [3]; in the data set with MMP13 in SW1353 cells) was less than 6.00 each time. The “Microsomal Stability Human (%)” value in data set [4] is on record as “**** (**** 76-100)”. Moreover, in data set [5], the “Microsomal Stability Rat (%)” value was “**** (**** 76-100)”.
Regarding `CC(=O)N(Cc1ccc(C#N)nc1)c1ccc(-c2cccc3nc(NC(=O)C4CC4)nn23)cc1` [Compound 297, Cyclopropanecarboxylic acid (5-{4-[acetyl-(6-cyano-pyridin-3-ylmethyl)-amino]-phenyl}-[1,2,4]triazolo[1,5-a]pyridin-2-yl)-amide], the negative logarithm of the IC50 (pIC50) in data set [1] and in data set [2] was more than 7.00 throughout. Also, the negative-log EC50 (pEC50) (in data set [3]; in the data set on MMP13 in SW1353 cells) was less than 6.00 in each case. In addition, in data set [5], the “Microsomal Stability Rat (%)” value is “**** (**** 76-100)”. Also, the Papp A→B at 1 h, 10 µM in data set [6] is 1.05 ×10⁻⁶ cm/s. The efflux ratio at 1 h, 10 µM in data set [6] turned out to be 70.2.
Take `N#CCc1ccc(OCc2ccc(-c3cccc4nc(NC(=O)C5CC5)nn34)cc2)cc1` [Compound 301, Cyclopropanecarboxylic acid {5-[4-(4-cyanomethyl-phenoxymethyl)-phenyl]-[1,2,4]triazolo[1,5-a]pyridin-2-yl}-amide]: the negative logarithm of the IC50 (pIC50) in data set [1] and in data set [2] was more than 7.00 in each case. Moreover, the figures for the negative-log EC50 (pEC50) (in data set [3]; with MMP13 in SW1353 cells) were 6.30 to 7.00 and less than 6.00, respectively. In addition, the “Microsomal Stability Rat (%)” value in data set [5] is recorded as “* (* 0-25)”. The Papp A→B at 1 h, 10 µM in data set [6] is 13.9 ×10⁻⁶ cm/s. Further, the efflux ratio at 1 h, 10 µM in data set [6] came out at 1.31.
As for `O=C(Nc1nc2cccc(-c3ccc(CNC4CCS(=O)(=O)C4)cc3)n2n1)C1CC1` (stereo not drawn) [Compound 304, Cyclopropanecarboxylic acid (5-{4-[(1,1-dioxo-tetrahydro-thiophen-3-ylamino)-methyl]-phenyl}-[1,2,4]triazolo[1,5-a]pyridin-2-yl)-amide], the pIC50 in data set [1] and in data set [2] was more than 7.00 in each case. The negative logarithm of the EC50 (pEC50) (in data set [3]; in the data set with MMP13 in SW1353 cells) was less than 6.00 each time. Moreover, the “Microsomal Stability Rat (%)” value in data set [5] is recorded as “**** (**** 76-100)”. Besides, in data set [6], the Papp A→B at 1 h, 10 µM stood at 0.3 ×10⁻⁶ cm/s. For the same molecule, the efflux ratio at 1 h, 10 µM in data set [6] is 69.7.

Usually pIC50 stands for the IC50 on a negative log10 scale, so that one unit is a factor of ten. Usually pEC50 stands for the negative decadic logarithm of the EC50, by convention in mol/L. By efflux ratio is commonly meant a quotient of directional permeabilities that is used to spot active efflux.
